Patent publication US20070232563A1, “Method for Enhancing Biological Activity and/or Expanding Suitable Region for Biological Activity of Living Body Contacting with Aqueous Environment” (Kabushiki Kaisha Hayashibara Seibutsu Kagaku Kenky, priority 2004, published 2007)

Key:
[1] = test system: short-necked clam (Ruditapes philippinarum); test: Biological activity of short-necked clam (aqueduct extension score) in aqueous mineral solutions; assay type: in vivo; conditions: saccharide 1 w/v %, total of 18 clams, 16 h
Experimental: Suitable region for biological activity of short-necked clam (Ruditapes philippinarum), as a fish or shellfish living in seawater, was examined by adding various saccharides to mineral aqueous solutions with various concentrations. In detail, solar salt (85% by weight of sodium chloride and 15% by weight of magnesium) as minerals was dissolved in running water kept in a container for two days to give final concentrations described in the following Table 1. Saccharide (any one of D-glucose, maltose, sucrose, maltitol, α,α-trehalose, α-maltosyl α,α-trehalose, maltotetraose and cyclic tetrasaccharide) was dissolved in the resulting salt solutions to give a final concentration of 1 w/v %, on a dry solid basis. Each of the resulting solutions was placed in a plastic bat. Eighteen pre-selected active short-necked clam in one group were placed in the bat. The bat was shaded with a black cloth and left at ambient temperature (18° C.) for 16 hours. As a control, an aqueous solar salt solution without any saccharides was prepared. Saccharides except for α-maltosyl α,α-trehalose as a saccharide derivatives thereof and cyclic tetrasaccharide were chosen from commercialized products. α-Maltosyl α,α-trehalose as saccharide derivatives of α,α-trehalose in a powder form with a purity of 98 w/w % or over was prepared by the method disclosed in Experiment 4 in Japanese Patent Kokai No. 143876/1995. Cyclic tetrasaccharide in a crystalline form with a purity of 98 w/w % or over, on a dry solid basis, was prepared by the method disclosed in Example A-7 in International Patent Publication No. WO02/10361. Influence of various saccharides was judged by observing the degree of extending aqueduct of the shellfish; 3 points: its aqueduct is well extended; 2 points: its aqueduct is slightly extended; 1 point: its aqueduct is not extended but its shells are opened; 0 point: its shells are closed. The effect on biological activity was judged by the total point of 18 shellfishes. To investigate the effective concentration range of α,α-trehalose or α-maltosyl α,α-trehalose against a mineral solution with a concentration of 1.5 w/v % or 4.5 w/v %, where α,α-trehalose or α-maltosyl α,α-trehalose was remarkably effective in Experiment 1, the following experiment using α,α-trehalose or α-maltosyl α,α-trehalose at a concentration of 0.01, 0.1, 1, 2, 3 or 4 w/v % was carried out according to the method in Experiment 1. As a control, mineral aqueous solutions with a concentration of 1.5 w/v % or 4.5 w/v % without any of the saccharides were prepared and carried out in the same manner.

[2] = test system: colbicula (Corbicula leana); test: Biological activity of corbicula (aqueduct extension score) in aqueous mineral solutions; assay type: in vivo; conditions: saccharide 1 w/v %, total of 18 shellfishes, 16 h
Excerpt: Influence of various saccharides was judged by observing the degree of extending aqueduct of the shellfish; 3 points: its aqueduct is well extended; 2 points: its aqueduct is slightly extended; 1 point: its aqueduct is not extended but its shells are opened; 0 point: its shells are closed. The effect on biological activity was judged by the total point of 18 shellfishes.
Suitable region for biological activity was examined by using colbicula (Corbicula leana) as fishes and shellfishes living in fresh water in the case of enhancing their biological activity by using aqueous mineral solutions containing various saccharides. In detail, solar salt (85% by weight of sodium chloride and 15% by weight of magnesium) as minerals was dissolved in tap water kept in a container for two days to give final concentrations described in the following Table 4. Saccharide (any one of D-glucose, maltose, sucrose, maltitol, α,α-trehalose, α-maltosyl α,α-trehalose, maltotetraose and cyclic tetrasaccharide) was dissolved in the resulting salt solutions to give a final concentration of 1 w/v %, on a dry solid basis. The resulting each solution was placed in a plastic bat. Eighteen pre-selected active shellfishes in one group were placed in the bat. The bat was shaded with a black cloth and left at ambient temperature (18° C.) for 16 hours. As a control, an aqueous solar salt solution without saccharides was prepared. Biological activity of the shellfish was judged by measuring extend their aqueducts macroscopically in the same manner as in Experiment 1.
Effective concentration range of α,α-trehalose or α-maltosyl α,α-trehalose on enhancing biological activity and/or influencing on suitable region for biological activity of colbicula (Corbicula leana) was determined according to the method of Experiment 4 by examining biological activity of the shellfish in the aqueous mineral solution with a mineral concentration of 1.5 w/v %, where α,α-trehalose or α-maltosyl α,α-trehalose was effective in Experiment 4, containing α,α-trehalose or α-maltosyl α,α-trehalose at a concentration of 0.01, 0.1, 1, 2, 3 or 4 w/v %, on a dry solid basis. As a control, a solution containing 1.5 w/v % of mineral without such saccharides was prepared and treated in the same manner.

SMILES	Judgment score for biological activity ([1]; mineral 0 w/v %)	Judgment score for biological activity ([1]; mineral 0.5 w/v %)	Judgment score for biological activity ([1]; mineral 1.0 w/v %)	Judgment score for biological activity ([1]; mineral 1.5 w/v %)	Judgment score for biological activity ([1]; mineral 2.0 w/v %)	Judgment score for biological activity ([1]; mineral 2.5 w/v %)	Judgment score for biological activity ([1]; mineral 3.0 w/v %)	Judgment score for biological activity ([1]; mineral 3.5 w/v %)	Judgment score for biological activity ([1]; mineral 4.0 w/v %)	Judgment score for biological activity ([1]; mineral 4.5 w/v %)	Judgment score for biological activity ([1]; mineral 5.0 w/v %)	Judgment score for biological activity ([1]; mineral 5.5 w/v %)	Judgment score for biological activity ([1]; mineral 6.0 w/v %)	Judgment score of biological activity ([2]; mineral concentration 0)	Judgment score of biological activity ([2]; mineral concentration 0.5)	Judgment score of biological activity ([2]; mineral concentration 1.0)	Judgment score of biological activity ([2]; mineral concentration 1.5)	Judgment score of biological activity ([2]; mineral concentration 2.0)	Judgment score of biological activity ([2]; mineral concentration 2.5)	Judgment score of biological activity ([2]; mineral concentration 3.0)
OC[C@H]1O[C@H](O[C@H]2[C@H](O)[C@@H](O)[C@@H](O[C@H]3[C@H](O)[C@@H](O)[C@@H](O[C@H]4[C@H](O)[C@@H](O)C(O)O[C@@H]4CO)O[C@@H]3CO)O[C@@H]2CO)[C@H](O)[C@@H](O)[C@@H]1O (stereo partly shown) [Maltotetraose, maltotetraose]	7	11	12	16	28	45	46	42	31	26	14	5	0	51	49	19	14	11	9	0
OC[C@H]1O[C@@](CO)(O[C@H]2O[C@H](CO)[C@@H](O)[C@H](O)[C@H]2O)[C@@H](O)[C@@H]1O [Sucrose, sucrose]	7	11	14	16	31	44	48	45	30	21	9	0	0	51	46	21	11	8	7	0
